Results from the NIST ThermoML archive (doi:10.1021/je060271a).

Settings: 323.15 K, Liquid, Vibrating tube method

CCCCC(=O)OCC(COC(=O)CCCC)(COC(=O)CCCC)COC(=O)CCCC [pentaerythritol tetrapentanoate]
Settings | mass density [kg/m3]
20383 kPa | 1008.5
20411 kPa | 1008.4
20440 kPa | 1008.5
20474 kPa | 1008.4
20502 kPa | 1008.4
20532 kPa | 1008.5
20561 kPa | 1008.5
20596 kPa | 1008.5
20625 kPa | 1008.6
20659 kPa | 1008.6
20689 kPa | 1008.5
20718 kPa | 1008.6
20747 kPa | 1008.6
20783 kPa | 1008.8
20813 kPa | 1008.6
20848 kPa | 1008.7
20877 kPa | 1008.7
20908 kPa | 1008.7
20944 kPa | 1008.8
20974 kPa | 1008.8
21004 kPa | 1008.8
21035 kPa | 1008.8
21072 kPa | 1008.7
21102 kPa | 1008.8
21133 kPa | 1008.9
21170 kPa | 1008.8
21202 kPa | 1009
21233 kPa | 1008.9
21271 kPa | 1008.9
21302 kPa | 1009
21334 kPa | 1009.1
21366 kPa | 1009
21404 kPa | 1009
21436 kPa | 1009.1
21467 kPa | 1009.1
21506 kPa | 1009.1
21538 kPa | 1009
21570 kPa | 1009.1
21602 kPa | 1009.2
21640 kPa | 1009.2
21673 kPa | 1009.2
21712 kPa | 1009.2
21744 kPa | 1009.1
21778 kPa | 1009.3
21817 kPa | 1009.3
21851 kPa | 1009.3
21883 kPa | 1009.4
21916 kPa | 1009.3
21956 kPa | 1009.5
21989 kPa | 1009.3
22029 kPa | 1009.4
22063 kPa | 1009.6
22097 kPa | 1009.4
22137 kPa | 1009.6
22171 kPa | 1009.6
22206 kPa | 1009.5
22241 kPa | 1009.5
22282 kPa | 1009.6
22316 kPa | 1009.7
22351 kPa | 1009.7
22393 kPa | 1009.6
22429 kPa | 1009.6
22457 kPa | 1009.7
22500 kPa | 1009.8
22542 kPa | 1009.8
22578 kPa | 1009.8
22621 kPa | 1009.9
22658 kPa | 1009.7
22697 kPa | 1009.8
22736 kPa | 1009.9
22782 kPa | 1009.8
22818 kPa | 1009.9
22851 kPa | 1010
22882 kPa | 1010
22921 kPa | 1010.1
22951 kPa | 1009.9
22978 kPa | 1010.1
23006 kPa | 1010
23030 kPa | 1010
23059 kPa | 1010.1
23083 kPa | 1010.2
23108 kPa | 1010.1
23132 kPa | 1010.2
23156 kPa | 1010.1
23180 kPa | 1010.1
23209 kPa | 1010.1
23233 kPa | 1010.2
23262 kPa | 1010.2
23287 kPa | 1010.1
23311 kPa | 1010.3
23336 kPa | 1010.3
23364 kPa | 1010.3
23389 kPa | 1010.3
23414 kPa | 1010.4
23444 kPa | 1010.3
23468 kPa | 1010.3
23497 kPa | 1010.4
23523 kPa | 1010.3
23547 kPa | 1010.4
23572 kPa | 1010.4
23603 kPa | 1010.4
23627 kPa | 1010.5
23657 kPa | 1010.5
23683 kPa | 1010.5
23708 kPa | 1010.5
23738 kPa | 1010.6
23763 kPa | 1010.6
23790 kPa | 1010.6
23820 kPa | 1010.5
23846 kPa | 1010.7
23871 kPa | 1010.6
23902 kPa | 1010.5
23928 kPa | 1010.7
23954 kPa | 1010.7
23985 kPa | 1010.6
24011 kPa | 1010.6
24037 kPa | 1010.7
24063 kPa | 1010.8
24094 kPa | 1010.9
24121 kPa | 1010.7
24148 kPa | 1010.8
24180 kPa | 1010.8
24206 kPa | 1010.7
24237 kPa | 1010.8
24264 kPa | 1010.9
24291 kPa | 1010.8
24318 kPa | 1010.9
24350 kPa | 1010.8
24378 kPa | 1010.9
24405 kPa | 1011
24437 kPa | 1010.9
24464 kPa | 1010.9
24497 kPa | 1011.1
24525 kPa | 1011
24552 kPa | 1011
24580 kPa | 1011.1
24612 kPa | 1011
24640 kPa | 1011
24667 kPa | 1011.2
24701 kPa | 1011.1
24728 kPa | 1011.1
24761 kPa | 1011.1
24789 kPa | 1011.2
24817 kPa | 1011.2
24845 kPa | 1011.1
24879 kPa | 1011.3
24908 kPa | 1011.2
24936 kPa | 1011.2
24970 kPa | 1011.3
24999 kPa | 1011.2
25027 kPa | 1011.3
25056 kPa | 1011.3
25091 kPa | 1011.3
25119 kPa | 1011.3
25148 kPa | 1011.4
25182 kPa | 1011.4
25212 kPa | 1011.5
25247 kPa | 1011.4
25278 kPa | 1011.4
25307 kPa | 1011.4
25336 kPa | 1011.4
